The record followed here is ChEMBL document CHEMBL2073754, “Cotransport of reduced glutathione with bile salts by MRP4 (ABCC4) localized to the basolateral hepatocyte membrane” (Hepatology, 2003).

Holding throughout (format): functional, cell membranes, Membrane vesicle
What all share (set-up): scale not given: the % may be the effect or the level left

For series [1], the target named is T1, MRP4 (ABCC4) (Homo sapiens, UniProt O15439).
T1 sequence (O15439 whole entry): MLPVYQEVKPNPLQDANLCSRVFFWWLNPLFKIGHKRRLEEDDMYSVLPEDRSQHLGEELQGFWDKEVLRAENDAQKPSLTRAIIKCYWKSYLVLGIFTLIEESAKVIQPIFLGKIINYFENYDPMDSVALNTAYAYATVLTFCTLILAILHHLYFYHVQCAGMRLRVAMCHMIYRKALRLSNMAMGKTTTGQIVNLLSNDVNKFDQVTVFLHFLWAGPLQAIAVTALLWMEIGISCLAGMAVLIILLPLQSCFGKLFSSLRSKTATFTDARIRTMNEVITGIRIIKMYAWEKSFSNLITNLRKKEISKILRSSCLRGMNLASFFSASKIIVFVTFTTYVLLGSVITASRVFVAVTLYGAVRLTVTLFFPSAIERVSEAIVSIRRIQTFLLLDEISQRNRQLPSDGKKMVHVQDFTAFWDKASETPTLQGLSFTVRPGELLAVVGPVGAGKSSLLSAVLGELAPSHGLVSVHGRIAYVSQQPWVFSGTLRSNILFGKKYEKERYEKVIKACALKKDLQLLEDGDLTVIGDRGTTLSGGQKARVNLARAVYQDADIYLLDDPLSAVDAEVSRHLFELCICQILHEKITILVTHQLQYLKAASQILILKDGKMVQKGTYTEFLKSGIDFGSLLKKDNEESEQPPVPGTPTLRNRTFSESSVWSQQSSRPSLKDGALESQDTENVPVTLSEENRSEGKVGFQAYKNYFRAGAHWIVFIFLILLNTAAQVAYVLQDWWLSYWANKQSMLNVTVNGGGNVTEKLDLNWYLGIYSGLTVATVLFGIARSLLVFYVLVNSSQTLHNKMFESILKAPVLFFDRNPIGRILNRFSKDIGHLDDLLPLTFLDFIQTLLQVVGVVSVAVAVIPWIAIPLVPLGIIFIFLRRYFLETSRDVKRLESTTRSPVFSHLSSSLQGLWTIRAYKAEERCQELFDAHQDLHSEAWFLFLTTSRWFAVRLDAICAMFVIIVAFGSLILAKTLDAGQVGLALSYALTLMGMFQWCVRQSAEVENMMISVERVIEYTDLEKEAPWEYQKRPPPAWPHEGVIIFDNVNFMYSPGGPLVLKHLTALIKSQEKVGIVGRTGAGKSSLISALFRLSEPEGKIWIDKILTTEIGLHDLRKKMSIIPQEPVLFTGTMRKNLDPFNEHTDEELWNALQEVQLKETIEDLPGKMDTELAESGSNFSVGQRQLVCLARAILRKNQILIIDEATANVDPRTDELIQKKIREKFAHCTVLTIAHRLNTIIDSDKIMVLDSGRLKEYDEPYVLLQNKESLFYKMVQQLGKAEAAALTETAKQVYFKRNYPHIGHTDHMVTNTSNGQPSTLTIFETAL
As to the kind of experiment: TP_TRANSPORTER: inhibition of Taurocholate uptake in the presence of Lithoglycocholate at a concentration of 20uM in membrane vesicles from MRP4-expressing V79 cells. The following applies: hamster, probe taurocholate, read-out: Activity.

In series [2] the target is T1, MRP4 (ABCC4). As to the kind of experiment: TP_TRANSPORTER: inhibition of Taurocholate uptake in the presence of Ursodeoxycholate at a concentration of 20uM in membrane vesicles from MRP4-expressing V79 cells. The following applies: hamster, probe taurocholate, read-out: Activity.
The target in series [3] is T2, ATP-binding cassette sub-family C member 4 (Homo sapiens, UniProt O15439).
T2 sequence (O15439 whole entry): T1 sequence (O15439 whole entry)
Put plainly: TP_TRANSPORTER: inhibition of Taurocholate uptake in the presence of Lithocholate at a concentration of 20uM in membrane vesicles from MRP4-expressing V79 cells. The conditions noted are these: hamster, v79, 20 µM.

Series [4] concerns the target T2, ATP-binding cassette sub-family C member 4. Put plainly: TP_TRANSPORTER: inhibition of Taurocholate uptake in the presence of Probenecid at a concentration of 20uM in membrane vesicles from MRP4-expressing V79 cells. The following applies: hamster, v79, 20 µM.
Series [5] shares this target. Put plainly: TP_TRANSPORTER: inhibition of Taurocholate uptake in the presence of MK-571 at a concentration of 20uM in membrane vesicles from MRP4-expressing V79 cells. The conditions noted are these: hamster, v79, 20 µM.
Series [6] addresses T1, MRP4 (ABCC4). Put plainly: TP_TRANSPORTER: inhibition of Taurocholate uptake in the presence of Dehydroepiandrosterone-3-sulfate at a concentration of 5uM in membrane vesicles from MRP4-expressing V79 cells. The conditions noted are these: hamster, probe taurocholate, read-out: Activity.
The target of series [7] is T1, MRP4 (ABCC4). Put plainly: TP_TRANSPORTER: inhibition of Taurocholate uptake in the presence of Glycocholate at a concentration of 20uM in membrane vesicles from MRP4-expressing V79 cells. The following applies: hamster, probe taurocholate, read-out: Activity.
In series [8] the target is T1, MRP4 (ABCC4). As to the kind of experiment: TP_TRANSPORTER: inhibition of Taurocholate uptake in the presence of Dipyridamole at a concentration of 20uM in membrane vesicles from MRP4-expressing V79 cells. The following applies: hamster, probe taurocholate, read-out: Activity.
Series [9] has as its target T1, MRP4 (ABCC4). Put plainly: TP_TRANSPORTER: inhibition of Taurocholate uptake in the presence of Folate at a concentration of 20uM in membrane vesicles from MRP4-expressing V79 cells. The following applies: hamster, probe taurocholate, read-out: Activity.
The target in series [10] is T1, MRP4 (ABCC4). As to the kind of experiment: TP_TRANSPORTER: inhibition of Taurocholate uptake in the presence of Methotrexate at a concentration of 20uM in membrane vesicles from MRP4-expressing V79 cells. The conditions noted are these: hamster, probe taurocholate, read-out: Activity.
In series [11] the target is T1, MRP4 (ABCC4). As to the kind of experiment: TP_TRANSPORTER: inhibition of Taurocholate uptake by Taurochenodeoxycholate at a concentration of 20uM in membrane vesicles from MRP4-expressing V79 cells. The conditions noted are these: hamster, probe taurocholate, read-out: Activity.
Series [12] has as its target T1, MRP4 (ABCC4). Put plainly: TP_TRANSPORTER: inhibition of Taurocholate uptake in the presence of Tauroursodeoxycholate at a concentration of 20uM in membrane vesicles from MRP4-expressing V79 cells. The following applies: hamster, probe taurocholate, read-out: Activity.

For the compound `C[C@H](CCC(=O)NCC(=O)O)[C@H]1CC[C@H]2[C@@H]3CC[C@@H]4C[C@H](O)CC[C@]4(C)[C@H]3CC[C@]12C` [LITHOGLYCOCHOLATE], in [1], the activity at 20 µM was 9%.

Regarding `C[C@H](CCC(=O)O)[C@H]1CC[C@H]2[C@@H]3[C@@H](O)C[C@@H]4C[C@H](O)CC[C@]4(C)[C@H]3CC[C@]12C` [URSODIOL], in series [2], the activity at 20 µM was 18%.

For `C[C@H](CCC(=O)O)[C@H]1CC[C@H]2[C@@H]3CC[C@@H]4C[C@H](O)CC[C@]4(C)[C@H]3CC[C@]12C` [LITHOCHOLIC ACID], the Activity in series [3] turned out to be 68%.

Turning to `CCCN(CCC)S(=O)(=O)c1ccc(C(=O)O)cc1` [PROBENECID], the Activity in [4] turned out to be 52%.

As for `CN(C)C(=O)CCSC(SCCC(=O)O)c1cccc(/C=C/c2ccc3ccc(Cl)cc3n2)c1` (configuration not stated) [MK-571], the Activity in [5] is on record as 9%.

With `C[C@]12CC[C@H](OS(=O)(=O)O)CC1=CC[C@@H]1[C@@H]2CC[C@]2(C)C(=O)CC[C@@H]12` [PRASTERONE SULFURIC ACID], in series [6], the activity at 5 µM amounted to 34%.

As for `C[C@H](CCC(=O)NCC(=O)O)[C@H]1CC[C@H]2[C@@H]3[C@H](O)C[C@@H]4C[C@H](O)CC[C@]4(C)[C@H]3C[C@H](O)[C@]12C` [GLYCOCHOLIC ACID], the activity at 20 µM in [7] stood at 45%.

Take `OCCN(CCO)c1nc(N2CCCCC2)c2nc(N(CCO)CCO)nc(N3CCCCC3)c2n1` [DIPYRIDAMOLE]: the activity at 20 µM in series [8] is 32%.

Consider `Nc1nc2ncc(CNc3ccc(C(=O)N[C@@H](CCC(=O)O)C(=O)O)cc3)nc2c(=O)[nH]1` [FOLIC ACID], for which the activity at 20 µM in series [9] was 63%.

Turning to `CN(Cc1cnc2nc(N)nc(N)c2n1)c1ccc(C(=O)N[C@@H](CCC(=O)O)C(=O)O)cc1` [METHOTREXATE], the activity at 20 µM in series [10] was 39%.

On to `C[C@H](CCC(=O)NCCS(=O)(=O)O)[C@H]1CC[C@H]2[C@@H]3[C@H](O)C[C@@H]4C[C@H](O)CC[C@]4(C)[C@H]3CC[C@]12C` [TAUROCHENODEOXYCHOLATE], for which the activity at 20 µM in series [11] stood at 11%.

For the compound `C[C@H](CCC(=O)NCCS(=O)(=O)O)[C@H]1CC[C@H]2[C@@H]3[C@@H](O)C[C@@H]4C[C@H](O)CC[C@]4(C)[C@H]3CC[C@]12C` [TAURURSODIOL], in series [12], the activity at 20 µM came to 26%.
